Assay results published in US20140045847A1, “CRYSTALLINE FORM OF A SALT OF A MORPHOLINO SULFONYL INDOLE DERIVATIVE AND A PROCESS FOR ITS PREPARATION” (PIRAMAL ENTERPRISES LIMITED, priority 2011, published 2014).
Each block holds one molecule with its values, some of them ahead of it.

How the values were obtained:
human tumor cell lines = conditions: mesenchymal, epithelial and hematopoietic tumor cell lines; Carboni et al. 2009; cited from earlier work
pAkt = assay: IGF-1R autophosphorylation assay (Western blot), pAkt; assay type: cell-based, human; conditions: 1 h treatment, IGF-1 50 ng/mL stimulation
Method: (§1) Cells were grown and maintained in a medium containing 10% FBS. Cells grown as subconfluent monolayer, were subjected to serum starvation by replacing the respective culture medium with plain medium (containing no serum) and incubated for about 16 h at 37° C. in 5% CO2 incubator. Serum starved cells were treated with compound I at different concentrations for 1 h at 37° C. in 5% CO2 incubator and stimulated with IGF-1 (50 ng/mL) for the last 5 minutes of treatment with Compound I. After stimulation cells were washed twice with cold 1×PBS, pH 7.2 and cell lysates were prepared using CelLytic™ M cell lysis reagent (Sigma) containing protease and phosphatase inhibitors. Estimation of the total protein content in each cell lysate was carried out using Bradford reagent. Equal amount of protein from each lysate was subjected to Sodium Dodecyl Sulphate-Polyacrylamide Gel Electrophoresis (SDS-PAGE) followed by Western blotting protocol using specific antibody to pIGF-1R, IGF-1Rβ, pAkt, Akt, Pp70S6, p70S6, Pp44/42, p44/42 and loading control, β-actin. Imaging was done with BIO-RAD Image-Lab Software. The band density was then estimated using the software Image J. From the band densities of the various proteins at different concentrations of Compound I, the IC50 concentrations for various proteins were calculated, and are enumerated in Table 3.

[1] = Stability of the solid form under stress conditions; assay type: physicochemical
Pp70S6 = assay: IGF-1R autophosphorylation assay (Western blot), Pp70S6; assay type: cell-based, human; conditions: 1 h treatment, IGF-1 50 ng/mL stimulation
Method: as §1

pIGF-1R = biological target: T1, pIGF-1R (Homo sapiens, UniProt P08069); assay: IGF-1R autophosphorylation assay (Western blot), pIGF-1R; assay type: cell-based; conditions: 1 h treatment, IGF-1 50 ng/mL stimulation
T1 construct: endogenous in cells
Method: as §1

[2] = biological target: T2, intracellular kinase domain of human IGF-1R (GST fusion protein) (Homo sapiens, UniProt P08069); assay: In vitro IGF-1R kinase assay (HTRF); assay type: biochemical; conditions: ATP 20 μM, IGFRK 0.25 nM, read-out: IC50 IGF-1R enzyme
T2 construct: intracellular kinase domain of human IGF-1R and expressed as GST fusion proteins; GST; made in house
Method: The in vitro kinase assays using IGF-1R kinase GST fusion proteins were conducted using a homogeneous time-resolved fluorescence (HTRF) format. Kinase reactions were carried out in a 384-well plate format in a final volume of 20 μL. The standard enzyme reaction buffer consisted of 50 mM Tris HCL (pH: 7.4), 1 mM EGTA, 10 mM MgCl2, 2 mM DTT, 0.01% Tween-20, IGF-1R/IR kinase enzyme, poly GT peptide substrate (Perkin Elmer [Ulight Glu-Tyr (4:1)]n) and ATP [concentration equivalent to Kmapp]. […] Europium cryptate—labeled antiphosphotyrosine antibody PY20 (5 μL) was added (final concentration of 2 nM) and the mixture was allowed to equilibrate for 1 hour at 23° C. followed by reading the plate in an Envision plate reader. […] The IC50 values for Compound I in both, the crystalline form and the amorphous form were determined by a four-parameter sigmoidal curve fit (Sigma plot or Graph pad) as represented in Table 2.
IGFRK enzyme used for the assay was intracellular kinase domain of human IGF-1R and expressed as GST fusion proteins using the baculovirus expression system and purified using glutathione—Sepharose column. […]

HCT116 cells = assay: Anti-proliferative assay (CellTiter-Glo), HCT116; assay type: cell-based; conditions: Homo sapiens, HCT-116; HCT116, 72 h, 100 ng/mL IGF-1 without FCS
Method: (§2) The cancer cell lines were seeded in triplicate (at density, from 3000-5000 cells/well depending on cell type) with 10% FCS in 180 μL of culture medium in tissue culture grade 96 well plates and allowed to recover for 24 h in humidified 5% CO2 incubator at 37±1° C. […] Compound I in crystalline form was used at concentration range of 0.1, 1, 3 and 10 μM and the plates were incubated for 72 h in humidified 5% CO2 incubator at 37±1° C. Control wells were treated with vehicle (DMSO). At the end of the incubation periods, the plates were assayed by the CellTiter-Glo® Luminescent Cell Viability assay protocol. Percent cytoxicity was calculated at the various drug concentrations. Graph for cytotoxicity vs. concentration of Compound I was plotted, and the IC50 values were determined
(§3) The CellTiter-Glo® Luminescent Cell Viability Assay is a homogeneous method to determine the number of viable cells in culture based on quantitation of the ATP present, which signals the presence of metabolically active cells. The amount of ATP is directly proportional to the number of cells present in culture
(§4) • 1. […] The luminescence is recorded using the POLARstar optima plate reader […] Values are IC50 in nM for different cell lines are provided for the crystalline form of Compound I in Table 4.

SK-ES cells = assay: Anti-proliferative assay (CellTiter-Glo), SK-ES; assay type: cell-based; conditions: Homo sapiens, 72 h, 100 ng/mL IGF-1 without FCS
Method: as §2, §3, §4

RD cells = assay: Anti-proliferative assay (CellTiter-Glo), RD; assay type: cell-based; conditions: Homo sapiens, 72 h, 100 ng/mL IGF-1 without FCS
Method: as §2, §3, §4

RD-ES cells = assay: Anti-proliferative assay (CellTiter-Glo), RD-ES; assay type: cell-based; conditions: Homo sapiens, 72 h, 100 ng/mL IGF-1 without FCS
Method: as §2, §3, §4

A673 cells = assay: Anti-proliferative assay (CellTiter-Glo), A673; assay type: cell-based; conditions: Homo sapiens; A673, 72 h, 100 ng/mL IGF-1 without FCS
Method: as §2, §3, §4

MCF7 cells = assay: Anti-proliferative assay (CellTiter-Glo), MCF7; assay type: cell-based; conditions: Homo sapiens; MCF7, 72 h, 100 ng/mL IGF-1 without FCS
Method: as §2, §3, §4

[3] = Homo sapiens, A673, 1 h, A673 cells
[4] = MCF7 cells, listed as Crystalline form

T1 sequence (P08069 31-1367): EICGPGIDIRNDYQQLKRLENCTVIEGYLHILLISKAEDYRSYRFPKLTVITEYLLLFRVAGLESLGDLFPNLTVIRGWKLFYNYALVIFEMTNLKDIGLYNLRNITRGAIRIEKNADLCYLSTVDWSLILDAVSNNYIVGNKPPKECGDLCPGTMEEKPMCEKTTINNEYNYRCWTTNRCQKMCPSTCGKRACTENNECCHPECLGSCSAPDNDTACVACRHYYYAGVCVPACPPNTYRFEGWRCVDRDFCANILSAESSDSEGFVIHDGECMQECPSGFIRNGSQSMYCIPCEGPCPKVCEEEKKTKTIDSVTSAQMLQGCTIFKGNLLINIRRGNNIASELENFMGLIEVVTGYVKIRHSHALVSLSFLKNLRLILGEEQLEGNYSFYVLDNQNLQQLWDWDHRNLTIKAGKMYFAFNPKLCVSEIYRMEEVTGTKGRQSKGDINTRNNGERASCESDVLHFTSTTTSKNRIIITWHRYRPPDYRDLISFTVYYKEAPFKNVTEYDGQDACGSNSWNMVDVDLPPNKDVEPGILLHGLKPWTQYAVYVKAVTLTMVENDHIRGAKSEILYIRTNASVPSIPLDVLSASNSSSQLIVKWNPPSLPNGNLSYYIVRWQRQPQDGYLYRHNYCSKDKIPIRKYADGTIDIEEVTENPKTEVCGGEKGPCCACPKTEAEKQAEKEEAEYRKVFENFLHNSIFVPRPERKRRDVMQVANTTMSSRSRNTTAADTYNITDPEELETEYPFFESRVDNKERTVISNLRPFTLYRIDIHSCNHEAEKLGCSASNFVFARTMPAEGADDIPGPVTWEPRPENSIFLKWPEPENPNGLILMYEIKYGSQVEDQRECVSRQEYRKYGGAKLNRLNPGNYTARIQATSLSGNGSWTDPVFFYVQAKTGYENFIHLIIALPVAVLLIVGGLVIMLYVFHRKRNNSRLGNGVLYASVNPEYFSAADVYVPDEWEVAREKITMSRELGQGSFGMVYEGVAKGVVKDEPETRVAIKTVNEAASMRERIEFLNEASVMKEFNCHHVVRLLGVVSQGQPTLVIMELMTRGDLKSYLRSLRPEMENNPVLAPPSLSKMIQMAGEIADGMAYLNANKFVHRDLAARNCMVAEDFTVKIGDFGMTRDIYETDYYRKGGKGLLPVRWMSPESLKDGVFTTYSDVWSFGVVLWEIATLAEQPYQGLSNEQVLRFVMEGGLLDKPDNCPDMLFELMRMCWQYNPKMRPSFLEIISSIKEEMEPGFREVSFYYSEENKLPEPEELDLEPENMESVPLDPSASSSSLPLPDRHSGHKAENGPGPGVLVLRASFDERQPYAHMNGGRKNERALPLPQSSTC
T2 sequence (P08069 999-1274 limits assumed): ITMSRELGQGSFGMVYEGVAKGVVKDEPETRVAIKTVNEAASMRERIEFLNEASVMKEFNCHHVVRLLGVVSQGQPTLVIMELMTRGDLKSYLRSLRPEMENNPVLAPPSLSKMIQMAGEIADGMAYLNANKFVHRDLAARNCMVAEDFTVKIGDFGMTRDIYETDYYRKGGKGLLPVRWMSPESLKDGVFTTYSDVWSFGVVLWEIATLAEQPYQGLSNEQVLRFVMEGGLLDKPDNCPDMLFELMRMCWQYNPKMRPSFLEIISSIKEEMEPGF

Structure (SMILES): C[C@@]1(C(=O)Nc2ccc(F)nc2)CCCN1c1nc(Nc2cc(C3CC3)n[nH]2)c2cccn2n1 [BMS-754807]
inhibition of growth of human tumor types in vitro (human tumor cell lines): effectively inhibits the growth

IC50 (pAkt; Colo205 cells, listed as Amorphous form): 620 nM | IC50 (pAkt; [3]): 260 nM | IC50 (pAkt; MCF7 cells, listed as Amorphous form): 380 nM | stability under stress conditions ([1]; listed as amorphous form of Compound I): unstable under stress conditions | IC50 (Pp70S6; [3]): 450 nM | IC50 (Pp70S6; Homo sapiens, MCF7, 1 h, MCF7 cells): 680 nM | IC50 (pIGF-1R; A673 cells): < 10 nM | IC50 (pIGF-1R; Colo205 cells): 400 nM | IC50 (pIGF-1R; MCF7 cells): 15 nM
Structure (SMILES): CCOC(=O)N1CCC(Nc2cc(Cl)cc3c(S(=O)(=O)N4CCO[C@H](COc5ccccc5)C4)c(C(N)=O)[nH]c23)CC1 [Compound I (amorphous form), (S)-ethyl 4-(2-carbamoyl-5-chloro-3-(2-(phenoxymethyl)morpholinosulfonyl)-1H-indol-7-ylamino)piperidine-1-carboxylate methane sulfonate]

IC50 [2]: 22 nM | IC50 (HCT116 cells): 900 nM | IC50 (pAkt; A673 cells): 220 nM | IC50 (pAkt; Colo205 cells, listed as Crystalline form): 23 nM | IC50 (pAkt; [4]): 50 nM | IC50 (SK-ES cells): 450 nM | IC50 (Pp70S6; [4]): 460 nM | IC50 (pIGF-1R; A673 cells): 30 nM | IC50 (pIGF-1R; Colo205 cells): 46 nM | IC50 (MCF7 cells): 160 nM
Structure (SMILES): CCOC(=O)N1CCC(Nc2cc(Cl)cc3c(S(=O)(=O)N4CCO[C@H](COc5ccccc5)C4)c(C(N)=O)[nH]c23)CC1 [Compound I (crystalline form), (S)-ethyl 4-(2-carbamoyl-5-chloro-3-(2-(phenoxymethyl)morpholinosulfonyl)-1H-indol-7-ylamino)piperidine-1-carboxylate methane sulfonate]
stability under stress conditions ([1]; listed as crystalline form of Compound I): stable with reproducible pharmacological activity even under stress conditions | IC50 (RD cells): 1400 nM | IC50 (RD-ES cells): 250 nM | IC50 (A673 cells): 1800 nM
